Results on one compound are retold here after publication PMC12542965, “Remolding laccase for whole-cell and in vivo modulation of dopamine signal” (Science Advances, 2025).

SMILES strings stand for the structures.

Assay [1] concerns the target T1, native SLAC (bacterial small laccase) (Streptomyces coelicolor, UniProt Q9XAL8).
T1 construct: gene SCO6712; reconstituted with CuCl2 (T1 Cu and T2/T3 Cu trinuclear cluster); trimer
T1 sequence (Q9XAL8 34-343): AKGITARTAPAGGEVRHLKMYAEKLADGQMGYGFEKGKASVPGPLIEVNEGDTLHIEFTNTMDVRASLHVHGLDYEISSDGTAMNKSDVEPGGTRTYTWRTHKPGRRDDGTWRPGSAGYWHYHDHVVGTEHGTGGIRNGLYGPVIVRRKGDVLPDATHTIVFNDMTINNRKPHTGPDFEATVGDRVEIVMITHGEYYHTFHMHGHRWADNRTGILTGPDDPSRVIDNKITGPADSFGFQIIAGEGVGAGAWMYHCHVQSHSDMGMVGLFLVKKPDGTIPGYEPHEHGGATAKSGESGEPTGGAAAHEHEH
Put plainly: UV-vis quinone formation at […] nm. The settings on record: 50 mM sodium phosphate, O2 as co-substrate, pH 6.0 to 8.0 (pH series); native Cu-reconstituted enzyme; T1 Cu quantified at 590 nm. In kind it is biochemical.

Assay [2] concerns the target T2, RuCu-SLAC (remolded laccase) (Streptomyces coelicolor, UniProt Q9XAL8).
T2 construct: gene SCO6712; artificial metalloenzyme: same apo-SLAC polypeptide (E. coli BL21(DE3), N-terminal GST tag cut off by PPase) loaded with Ru3+ then Cu2+; homodimer with one Ru and three Cu; Ru-Cu binuclear centre replaces the Cu trinuclear cluster
T2 sequence (Q9XAL8 34-343): T1 sequence (Q9XAL8 34-343)
Nature of the assay: UV-vis quinone formation at […] nm. Format: biochemical. The settings on record: 50 mM sodium phosphate, O2 as co-substrate, pH 6.0 to 8.0 (pH series); Ru-Cu artificial metal centre; T1 Cu quantified at 590 nm.

For `NCCc1ccc(O)c(O)c1` [dopamine], the Michaelis-Menten constants entry in assay [1] is “Michaelis-Menten constants and Kcat (turnover number) of both enzymes with a dopamine substrate”; in assay [2], “Michaelis-Menten constants and Kcat (turnover number) of both enzymes with a dopamine substrate”.
